The text below walks through data of US20170252469A9, “Method for predicting autism spectrum disorders by cannabinoid and cannabinoid receptor expression” (The United of America as represented by the Secretary of …, priority 2011, published 2017).

The subject of test [1] is BTBR mice. Description: three-chamber social approach test in BTBR mice. It counts as in vivo, mouse. An excerpt: (§1) BTBR T+tf/J, 129S1/SvImJ and C57BL/6 mouse colony founders were originally obtained from the Jackson Laboratory (Bar Harbor, Me., USA). These strains were bred in the animal facilities of the University of Texas Health Science Center at San Antonio through 2 generations. After weaning at 23-25 days of age, male littermates were housed in groups of 4-5 per cage until behavioral testing at 3-4 months of age. Mice had ad libitum access to food (Teklad™ rodent diet, Harlan, Indianapolis, Ind., USA) and water in ventilated clear plastic cages lined with chipped wood bedding.
(§2) The cannabinoid agonist WIN55,212-2 (Ascent Scientific, Princeton, N.J., USA) was dissolved initially in dimethyl-sulfoxide (DMSO Sigma) and was diluted with saline (1:10) to administer 0.1 mg/kg i.p. in 10% DMSO to mice. […] Injections were given 30 minutes prior to introduction to the testing arena for conditioning, and 50 min prior to behavior testing.
The three-chamber sociability testing procedure for mice is described in detail in Yang et al. Curr. Protoc. Neurosci., Chapter 8: Unit 8. 26 (2011), our study was conducted in a manner consistent with that protocol. Mice were introduced into the center chamber of an acrylic three-chamber sociability arena, measuring 30×22×61 cm with a light tan bottom, black side walls and two transparent interior walls with slat door openings of 10 cm^2 […] dividing the arena into 3 chambers, for 20 min prior to behavioral testing. As described in Gould et al. J. Neurochem., 116: 291-303 (2011), pre-conditioning was performed under low red light (16 lux) at first for 10 min with the mouse confined in the center chamber, then with the doors opened so the subject could explore the entire arena for 10 min longer. Just prior to testing, subjects were briefly confined in the center chamber while an empty wire cup cage was placed at one end of the arena, and a stranger mouse of the same strain was placed under an identical cup cage at the opposite end. Stranger mice were neither litter- nor cage-mates of the subjects and were housed in a separate ventilated cage rack. Stranger mice were pre-conditioned under cup cages in 3 sessions of 30 min each in the day(s) prior to testing, separated by 1 hour reprises in their home cages. Cup cages were topped with weighted jars (9 cm high×7 cm diameter) to prevent mice from climbing on top of them. Digital video cameras (Hewlett-Packard Photosmart™ R742, Palo Alto, Calif., USA) positioned on top of tripods overseeing the arenas were turned on, the doors were removed and social approach behavior was recorded for 10 min under low red light.

Test [2] relates to BTBR mice. The test is described as follows: three-chamber social novelty test in BTBR mice. The settings on record: WIN 55,212-2 0.1 mg/kg i.p.; for time in the chamber with the novel stranger / chamber entries: acetaminophen 100 mg/kg; for time in the chamber with the novel stranger: vs controls; for chamber entries: social novelty test, BTBR. It counts as in vivo, mouse. As for the experimental part:
as §2
(§3) The social approach test ended with confinement of the subject into the center chamber and closing of the slat doors. A new stranger mouse was then placed under the empty cup cage, the doors were opened, and behavior was recorded for another 10 min under low red light to assess preference for social novelty. At the end of the test, stranger mice were returned to their home cages for use in subsequent tests, and subject mice were removed from the arena and placed in a marble burying test. The number of boli in the center of the arena was counted prior to cleaning the arena with a solution of 70% EtOH and paper towels prior to conditioning and testing the next animal. Digital videos were analyzed for box entries, time in box and social sniffing time by observers blind to mouse strain or drug treatments.

For test [3], the system named is 129S1/SvImJ mice. Description: three-chamber social approach test in 129S1/SvImJ mice. It counts as in vivo, mouse. The settings on record: 129S.
Description: as §1, §2
The three-chamber sociability testing procedure for mice is described in detail in Yang et al. Curr. Protoc. Neurosci., Chapter 8: Unit 8. 26 (2011), our study was conducted in a manner consistent with that protocol. Mice were introduced into the center chamber of an acrylic three-chamber sociability arena, measuring 30×22×61 cm with a light tan bottom, black side walls and two transparent interior walls with slat door openings of 10 cm^2 […] dividing the arena into 3 chambers, for 20 min prior to behavioral testing. As described in Gould et al. J. Neurochem., 116: 291-303 (2011), pre-conditioning was performed under low red light (16 lux) at first for 10 min with the mouse confined in the center chamber, then with the doors opened so the subject could explore the entire arena for 10 min longer. […] Digital video cameras (Hewlett-Packard Photosmart™ R742, Palo Alto, Calif., USA) positioned on top of tripods overseeing the arenas were turned on, the doors were removed and social approach behavior was recorded for 10 min under low red light.

For test [4], the system named is 129S1/SvImJ mice. Description: three-chamber social novelty test in 129S1/SvImJ mice. It counts as in vivo, mouse. As to conditions: 129S, FIG. 3c; for time in the arena chamber with a new stranger mouse: acetaminophen 100 mg/kg i.p. As for the experimental part:
as §2, §3

The subject of test [5] is 129S1/SvImJ mice. Description: marble burying test in 129S1/SvImJ mice, acute treatment. It counts as in vivo, mouse. The settings on record: 129S, acetaminophen 100 mg/kg i.p., FIG. 3d. As for the experimental part: as §2
The test system of the next test is BTBR and C57BL/6 mice. The test is described as follows: marble burying after injections in early postnatal development. The format is in vivo, mouse. The settings on record: 100 mg/kg i.p. injections from 18-21 days postnatal, 59 days, FIG. 5. As for the experimental part:
(§4) The mice were then tested for marble burying and evaluated for neurochemical measures.

Test [6] concerns BTBR mice. Description: 2-AG levels after injections in early postnatal development. It counts as in vivo, mouse. The settings on record: 100 mg/kg i.p. injections from 18-21 days postnatal, 59 days, FIG. 6. As for the experimental part: as §4
The test system of the next test is mice. As to conditions: administration of anandamide or high doses of acetaminophen; Umathe et al. 2009; cited from earlier work.
The test system of another test is 5-HT receptors. The settings on record: literature; cited from earlier work.
Test [7] deals with BTBR mice. The test is described as follows: marble burying test in BTBR mice, acute treatment. It counts as in vivo, mouse. As to conditions: 30 min, FIG. 2d. The method, then: as §2
The subject of the next test is 5-HT neurons. The settings on record: literature; cited from earlier work.

Entries after “also recorded” stand apart in the source; their conditions may differ.

For `CC(=O)Nc1ccc(O)cc1` [acetaminophen], the “dwelling near confined stranger mice” value in the test with BTBR mice [1] (100 mg/kg i.p. 50 min prior to testing, adult male BTBR, FIG. 1) is reported as “increased dwelling near confined stranger mice”; in the test on BTBR mice [1] (400 mg/kg i.p. 50 min prior to testing, adult male BTBR, FIG. 1) it was “increased dwelling near confined stranger mice”. Besides, the “time in the chamber with the empty cage” value in the test on BTBR mice [1] (acetaminophen 100 mg/kg i.p., vs vehicle controls or WIN 55,212-2 0.1 mg/kg) is “less time in the chamber with the empty cage”. In addition, in the test with BTBR mice [1] (acetaminophen 100 mg/kg i.p., vs vehicle controls or WIN 55,212-2 0.1 mg/kg, FIG. 2a), the “time in the chamber with the stranger mouse” value is given as “increased dwelling near stranger mice; also recorded: spent more time in the chamber with the stranger mouse”. Moreover, in the test on BTBR mice [1] (adult male BTBR, dose-response 1-400 mg/kg i.p., FIG. 1), the “lowest dose to significantly increase time spent in the chamber with a stranger mouse above saline-injected controls” value is 100 mg/kg. In addition, the “time in the chamber with the novel stranger” value with BTBR mice [2] (FIG. 2c) is “reduced time spent in the chamber of the arena with a novel stranger; also recorded: spent less time in the box with the novel stranger than controls”. In addition, the chamber entries in the test on BTBR mice [2] stood at 50±7; in the test with 129S1/SvImJ mice [3] (acetaminophen 100 mg/kg, WIN 55,212-2 0.1 mg/kg i.p.) it was 21±5. Besides, the “time spent sniffing the stranger mouse or investigating the empty cage” value with 129S1/SvImJ mice [3] (FIG. 3b) is given as “trend toward acetaminophen-treated 129S mice spending more time investigating strangers that did not reach significance”. Also, the “time in the arena chamber with a new stranger mouse” value is on record as “spent significantly more time than controls in the arena chamber with a new stranger mouse” in the test with 129S1/SvImJ mice [4] and “increased dwelling near new strangers relative to controls” with 129S1/SvImJ mice [4] (listed as Acetaminophen). In addition, the figures for the marble burying entry with 129S1/SvImJ mice [5] and in the test with 129S1/SvImJ mice [5] (listed as Acetaminophen) were “greater than in vehicle-control or WIN 55,212-2 treated 129S mice” and “increased marble burying behavior relative to control or WIN 55,212 treatments”, respectively. Moreover, the marble burying behavior entry in the test on BTBR and C57BL/6 mice is “induced significant marble burying behavior”. Further, the 2-AG levels result in the test with BTBR mice [6] is listed as “significant affect on 2-AG levels; also recorded: diminution of 2-AG levels”. Besides, in the test on mice, the social interactions result is given as “promote social interactions in mice”. Besides, the “affinity for 5-HT receptors” value in the test with 5-HT receptors is reported as “little to no affinity for 5-HT receptors”.
For the compound `CCCCC/C=C\C/C=C\C/C=C\C/C=C\CCCC(=O)NCCO` [anandamide, N-arachidonoylethanolamine], the social interactions entry in the test on mice was “promote social interactions in mice”.
As for `Cc1c(C(=O)c2cccc3ccccc23)c2cccc3c2n1[C@H](CN1CCOCC1)CO3` [WIN 55,212-2], the “time in the arena center” value with BTBR mice [1] (WIN 55,212-2 0.1 mg/kg i.p., social approach, FIG. 2a) was “increased lingering in the arena center”; with BTBR mice [2] (social novelty, FIG. 2c) it was “reduced dwelling in the arena center; also recorded: spent less time than the other groups in the arena center”. Moreover, the “time in the chamber with the novel stranger” value with BTBR mice [2] (FIG. 2c) is given as “reduced time spent in the chamber of the arena with a novel stranger; also recorded: spent less time in the box with the novel stranger than controls”. Further, in the test on BTBR mice [2], the chamber entries is recorded as 19±3. For the same compound, the marbles buried result with BTBR mice [7] is “trend toward WIN 55212 treated mice burying fewer than controls”. In addition, in the test with 129S1/SvImJ mice [3] (WIN 55,212-2 0.1 mg/kg i.p.), the “time in the center chamber” value was “increased time spent by 129S mice in the arena center; also recorded: spent more time than acetaminophen (100 mg/kg) or vehicle (saline±10% DMSO) treated mice in the center chamber”. The “dwelling in the center chamber” value in the test with 129S1/SvImJ mice [4] (WIN 55,212-2 0.1 mg/kg i.p.) was “increased dwelling in the center chamber of the arena”. For the same compound, in the test on 5-HT neurons, the “presynaptic 5-HT release in brain” value is recorded as “inhibit presynaptic 5-HT release in brain”.
